IC50 and inhibition data for 22 compounds are collected here from ChEMBL document CHEMBL1828564, “Design, synthesis and biological evaluation of novel 1,2,3,4-tetrahydroisoquinoline-3-carboxylic acid derivatives as aminopeptidase N/CD13 inhibitors” (Bioorg Med Chem, 2011).

Assay [1] concerns the target T1, Aminopeptidase N (Sus scrofa, UniProt P15145).
T1 sequence (P15145 whole entry): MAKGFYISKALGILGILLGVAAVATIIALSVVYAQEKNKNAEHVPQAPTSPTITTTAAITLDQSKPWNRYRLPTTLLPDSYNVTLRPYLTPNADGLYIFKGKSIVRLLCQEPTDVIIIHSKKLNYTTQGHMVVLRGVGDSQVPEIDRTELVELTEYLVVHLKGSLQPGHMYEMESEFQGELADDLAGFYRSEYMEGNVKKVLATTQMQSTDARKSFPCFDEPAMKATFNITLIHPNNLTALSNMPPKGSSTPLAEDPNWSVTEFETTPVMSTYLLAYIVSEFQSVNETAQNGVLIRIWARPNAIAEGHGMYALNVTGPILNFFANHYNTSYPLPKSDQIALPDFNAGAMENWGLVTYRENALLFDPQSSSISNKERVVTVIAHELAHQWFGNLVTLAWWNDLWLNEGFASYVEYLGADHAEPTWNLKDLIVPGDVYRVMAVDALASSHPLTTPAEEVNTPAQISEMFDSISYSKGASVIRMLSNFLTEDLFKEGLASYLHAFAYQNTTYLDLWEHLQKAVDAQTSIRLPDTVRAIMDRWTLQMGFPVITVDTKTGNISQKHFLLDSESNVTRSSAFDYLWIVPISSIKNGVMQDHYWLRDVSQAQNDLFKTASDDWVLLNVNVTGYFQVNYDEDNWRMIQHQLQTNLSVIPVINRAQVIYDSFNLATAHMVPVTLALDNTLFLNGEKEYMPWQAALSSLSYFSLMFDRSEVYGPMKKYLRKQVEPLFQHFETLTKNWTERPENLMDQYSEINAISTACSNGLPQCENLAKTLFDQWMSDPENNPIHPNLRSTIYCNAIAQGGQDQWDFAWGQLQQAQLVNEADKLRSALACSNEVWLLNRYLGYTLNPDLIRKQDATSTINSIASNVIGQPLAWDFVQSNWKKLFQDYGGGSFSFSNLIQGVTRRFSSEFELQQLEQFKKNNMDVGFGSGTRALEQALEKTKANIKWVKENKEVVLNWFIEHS
Put plainly: Inhibition of pig kidney microsome aminopeptidase N using L-Leu-p-nitroanilide substrate.

Assay [2] concerns the target 72 kDa type IV collagenase (Homo sapiens, UniProt P08253). Put plainly: Inhibition of MMP2 after 30 mins.
For another assay, the system named is MDA-MB-231. Put plainly: Antiproliferative activity against human MDA-MB-231 cells after 48 hrs by MTT assay. The note with it: MDA-MB-231, 48 h. The format is functional, cell-based. (In general: Tetrazolium dyes change colour on reduction, which living cells bring about.)
Another assay in a line: cells. The note with it: Homo sapiens, ES-2, 48 h.
The target of assay [3] is Aminopeptidase N (Homo sapiens, UniProt P15144). As to the kind of experiment: Inhibition of aminopeptidase N in human ES2 cells assessed as L-Leu-p-nitroanilide hydrolysis. The assay is classed as cell-based.

Where a SMILES comes first, the peptide text is derived from it. [ ]: non-standard residue; d: D form. The star is where a group is joined. Hyp = O=C(O)[C@@H]1C[C@@H](O)CN1; Tic = O=C(O)[C@@H]1Cc2ccccc2CN1; Phg = N[C@H](C(=O)O)c1ccccc1; NHOH = ON*

As a reminder, the IC50 is the concentration that inhibits the measured activity by half.

72 kDa type IV collagenase, sequence (P08253 whole entry): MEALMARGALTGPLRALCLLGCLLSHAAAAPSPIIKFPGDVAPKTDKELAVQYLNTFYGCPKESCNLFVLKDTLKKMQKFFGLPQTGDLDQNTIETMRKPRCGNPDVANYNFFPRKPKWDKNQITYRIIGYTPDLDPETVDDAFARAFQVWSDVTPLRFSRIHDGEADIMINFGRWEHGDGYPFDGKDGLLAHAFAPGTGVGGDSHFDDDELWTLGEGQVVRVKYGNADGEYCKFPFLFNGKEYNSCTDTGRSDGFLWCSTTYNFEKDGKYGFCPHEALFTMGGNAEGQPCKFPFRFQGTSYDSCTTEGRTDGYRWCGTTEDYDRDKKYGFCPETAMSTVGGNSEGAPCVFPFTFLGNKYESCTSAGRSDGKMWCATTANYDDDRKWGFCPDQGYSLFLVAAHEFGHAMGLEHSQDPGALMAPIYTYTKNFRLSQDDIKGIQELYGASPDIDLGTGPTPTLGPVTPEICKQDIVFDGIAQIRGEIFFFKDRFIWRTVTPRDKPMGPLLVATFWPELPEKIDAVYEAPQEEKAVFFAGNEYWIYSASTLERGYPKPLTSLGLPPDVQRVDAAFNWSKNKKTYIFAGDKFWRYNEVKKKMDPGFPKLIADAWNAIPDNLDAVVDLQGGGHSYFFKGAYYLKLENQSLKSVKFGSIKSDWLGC
Aminopeptidase N (Homo sapiens, UniProt P15144), sequence (P15144 whole entry): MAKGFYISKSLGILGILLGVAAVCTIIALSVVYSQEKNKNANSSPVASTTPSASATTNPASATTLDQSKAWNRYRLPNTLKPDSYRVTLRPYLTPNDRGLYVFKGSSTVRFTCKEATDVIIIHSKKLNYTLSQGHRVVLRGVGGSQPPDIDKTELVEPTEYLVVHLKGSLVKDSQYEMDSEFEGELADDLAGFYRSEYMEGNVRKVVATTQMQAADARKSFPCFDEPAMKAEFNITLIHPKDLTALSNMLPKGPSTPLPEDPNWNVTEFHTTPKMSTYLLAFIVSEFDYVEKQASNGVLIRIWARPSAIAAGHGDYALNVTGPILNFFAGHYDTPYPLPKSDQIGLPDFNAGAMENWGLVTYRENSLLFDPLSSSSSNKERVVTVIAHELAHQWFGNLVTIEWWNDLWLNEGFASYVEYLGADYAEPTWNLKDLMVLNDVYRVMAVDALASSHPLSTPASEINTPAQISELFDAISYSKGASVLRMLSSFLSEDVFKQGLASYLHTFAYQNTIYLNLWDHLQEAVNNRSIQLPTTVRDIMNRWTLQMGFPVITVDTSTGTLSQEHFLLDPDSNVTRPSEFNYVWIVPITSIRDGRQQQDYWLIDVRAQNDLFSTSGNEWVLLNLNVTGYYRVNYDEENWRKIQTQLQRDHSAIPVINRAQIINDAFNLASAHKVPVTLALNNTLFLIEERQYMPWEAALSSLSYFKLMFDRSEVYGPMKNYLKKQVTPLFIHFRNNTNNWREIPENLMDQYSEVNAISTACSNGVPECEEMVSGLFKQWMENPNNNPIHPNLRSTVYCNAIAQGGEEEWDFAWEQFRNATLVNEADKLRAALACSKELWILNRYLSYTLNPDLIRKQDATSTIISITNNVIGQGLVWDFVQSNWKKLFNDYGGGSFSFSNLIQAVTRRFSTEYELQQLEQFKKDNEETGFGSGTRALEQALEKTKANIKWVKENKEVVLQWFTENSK
Description for cells: Antiproliferative activity against human ES2 cells after 48 hrs by MTT assay

Take `CC(C)C[C@H](NC(=O)[C@@H]1Cc2ccccc2CN1)C(=O)N[C@@H](Cc1ccccc1)C(=O)NO` (H-[Tic]-Leu-Phe-{NHOH}): the IC50 at Aminopeptidase N [1] (read-out: IC50) worked out at 465 µM; in assay [2] (read-out: IC50) it was 657 µM.

With `O=C(N[C@@H](Cc1ccc(O)cc1)C(=O)NO)[C@@H]1Cc2ccccc2CN1` (H-[Tic]-Tyr-{NHOH}), the figures for the 50% inhibitory concentration (IC50) (at Aminopeptidase N [1] (read-out: IC50); in assay [2] (read-out: IC50)) were 9.39 µM and 540 µM, respectively.

Regarding `O=C(NO)[C@@H]1CCCN1C(=O)[C@@H]1Cc2ccccc2CN1` (H-[Tic]-Pro-{NHOH}), the values for the IC50 (on Aminopeptidase N [1] (read-out: IC50); in assay [2] (read-out: IC50)) were 104 µM and 157 µM, respectively.

`O=C(CCNC(=O)[C@@H]1Cc2ccccc2CN1)NO`: the concentration for half-maximal inhibition (IC50) on Aminopeptidase N [1] (read-out: IC50) amounted to 37.1 µM; in assay [2] (read-out: IC50), 517 µM.

Turning to `CC[C@H](C)[C@H](NC(=O)[C@@H]1Cc2ccccc2CN1)C(=O)NO.Cl` (H-[Tic]-Ile-{NHOH}), the half-maximal inhibitory concentration (IC50) result on Aminopeptidase N [1] was “Not Active”; in assay [2] (read-out: IC50) it was 672 µM.

For the compound `O=C(N[C@@H](CO)C(=O)NO)[C@@H]1Cc2ccccc2CN1` (H-[Tic]-Ser-{NHOH}), the half-maximal inhibitory concentration (IC50) at Aminopeptidase N [1] (read-out: IC50) turned out to be 40.2 µM; in assay [2] (read-out: IC50), 268 µM.

Regarding `CC(C)[C@H](NC(=O)[C@@H]1Cc2ccccc2CN1)C(=O)NO` (H-[Tic]-Val-{NHOH}), the IC50 at Aminopeptidase N [1] (read-out: IC50) turned out to be 36.6 µM; in assay [2] (read-out: IC50), 307 µM.

With `O=C(CCCNC(=O)[C@@H]1Cc2ccccc2CN1)NO`, the half-maximal inhibitory concentration (IC50) turned out to be 44.5 µM on Aminopeptidase N [1] (read-out: IC50) and 252 µM in assay [2] (read-out: IC50).

For `Cl.O=C(NO)[C@@H]1C[C@@H](O)CN1C(=O)[C@@H]1Cc2ccccc2CN1` (H-[Tic]-[Hyp]-{NHOH}), the half-maximal inhibitory concentration (IC50) entry is “Not Active” against Aminopeptidase N [1] and 276 µM in assay [2] (read-out: IC50).

Turning to `O=C(CNC(=O)[C@@H]1Cc2ccccc2CN1)NO` (H-[Tic]-Gly-{NHOH}), the 50% inhibitory concentration (IC50) at Aminopeptidase N [1] (read-out: IC50) was determined as 21.7 µM; in assay [2] (read-out: IC50), 249 µM.

With `O=C(N[C@@H](Cc1ccccc1)C(=O)NO)[C@@H]1Cc2ccccc2CN1` (H-[Tic]-Phe-{NHOH}), the 50% inhibitory concentration (IC50) was found to be 12.8 µM on Aminopeptidase N [1] (read-out: IC50) and 940 µM in assay [2] (read-out: IC50).

For `Cl.O=C(N[C@@H](Cc1cc2ccccc2[nH]1)C(=O)NO)[C@@H]1Cc2ccccc2CN1`, the IC50 at Aminopeptidase N [1] (read-out: IC50) is 43.4 µM; in assay [2], “Not Active”.

`Cl.O=C(CN1C(=O)CC[C@H](NC(=O)[C@@H]2Cc3ccccc3CN2)C1=O)NO`: the IC50 is 20.4 µM at Aminopeptidase N [1] (read-out: IC50) and “Not Active” in assay [2].

`CSCC[C@H](NC(=O)[C@@H]1Cc2ccccc2CN1)C(=O)NO` (H-[Tic]-Met-{NHOH}): the IC50 came out at 8.77 µM at Aminopeptidase N [1] (read-out: IC50) and 166 µM in assay [2] (read-out: IC50).

Take `CC(C)C[C@H](NC(=O)[C@@H]1Cc2ccccc2CN1)C(=O)NO` (H-[Tic]-Leu-{NHOH}): the IC50 on Aminopeptidase N [1] (read-out: IC50) turned out to be 27.5 µM; in assay [2] (read-out: IC50) it was 836 µM.

For the compound `CC(C)C[C@H](NC(=O)[C@H](CC(C)C)NC(=O)[C@@H]1Cc2ccccc2CN1)C(=O)NO.Cl` (H-[Tic]-Leu-Leu-{NHOH}), the IC50 at Aminopeptidase N [1] (read-out: IC50) is 481 µM; in assay [2], “Not Active”.

With `C[C@@H](O)[C@H](NC(=O)[C@@H]1Cc2ccccc2CN1)C(=O)NO` (H-[Tic]-Thr-{NHOH}), the IC50 on Aminopeptidase N [1] (read-out: IC50) stood at 46.6 µM; in assay [2] (read-out: IC50) it was 201 µM.

On to `Cl.O=C(N[C@@H](Cc1ccccc1)C(=O)N[C@@H](Cc1ccccc1)C(=O)NO)[C@@H]1Cc2ccccc2CN1` (H-[Tic]-Phe-Phe-{NHOH}), for which the IC50 on Aminopeptidase N [1] (read-out: IC50) is 435 µM; in assay [2] it was “Not Active”.

With `CC(C)C[C@H](NC(=O)[C@@H](O)[C@H](N)Cc1ccccc1)C(=O)O` [UBENIMEX], the figures for the concentration for half-maximal inhibition (IC50) with MDA-MB-231 and in the assay “cells” were 753 µM and 142 µM, respectively.

Take `C[C@H](NC(=O)[C@@H]1Cc2ccccc2CN1)C(=O)NO` (H-[Tic]-Ala-{NHOH}): the IC50 on Aminopeptidase N [1] (read-out: IC50) was determined as 83.8 µM; in assay [2] (read-out: IC50) it was 463 µM.

Regarding `CC(C)C[C@H](NC(=O)[C@H](Cc1ccccc1)NC(=O)[C@@H]1Cc2ccccc2CN1)C(=O)NO.Cl` (H-[Tic]-Phe-Leu-{NHOH}), the IC50 at Aminopeptidase N [1] (read-out: IC50) was 555 µM; in assay [2], “Not Active”.

Regarding `O=C(N[C@H](C(=O)NO)c1ccccc1)[C@@H]1Cc2ccccc2CN1` (H-[Tic]-[Phg]-{NHOH}), the IC50 stood at 591 µM in the assay on MDA-MB-231; 6.28 µM on Aminopeptidase N [1] (read-out: IC50); 174 µM in “cells”; 393 µM in assay [2] (read-out: IC50); 32.7 µM on Aminopeptidase N [3]. Also, on Aminopeptidase N [3], the inhibition entry is “Dose-dependent effect”.
